The values below come from patent publication US20100119589A1, “LIPOSOMAL COMPOSITION OF ANTIOXIDANTS FOR INHALATIONS CARRIED OUT DURING LUNG AND UPPER RESPIRATORY TRACT DISEASES” (OTKRYTOE AKTSIONERNOE OBSCHESTVO ZAVOD EKOLOGICHES, priority 2006, published 2010).

Usually bioavailability stands for dose-corrected exposure relative to a reference, in per cent.

Data set [1] deals with multi lamellar vesicles of soybean phosphatidylcholine (PCh). In words: Inhibition of peroxidic oxidation of lipids (POL): TBA-sensitive products in soybean phosphatidylcholine liposomes. The data set is classed as biochemical. As to the method: The antioxidative activity of preparations with varying combinations of the ingredients was evaluated on the basis of their effect on the increase of concentration of POL products (malondialdehyde or products that are sentitive to thiobarbituric acid (TBA)) in an aqueous dispersion of soybean phospholipids. For this evaluation the concentration in the soybean phospatidylcholine liposomes was measured at an initial moment and after incubation at 37° C. for 60 min. in the absence and presence of POL starters, namely, Fe^3+ ions and ascorbate.
Originally a 2.0 percent aqueous dispersion of phospholipides with antioxidants, where wheat germ oil is also present, contains an insignificant amount of products sensitive to TBA (0.8 nmol/ml). This amount rises to 2-2.5 times as much as a result of heating for 60 min. When starters are added to the original system the concentration of POL products rises to 40 nmol/ml during incubation at 37° C. for 60 min., i.e., will be […] as high.
Increase of the amount of products sensitive to TBA [nmol/ml] in multi lamellar vesicles of soybean phosphatidylcholine (PCh) containing N-acetyl-L-cysteine as a result of oxidation, the latter caused by introduction of an oxidation starter Pe3+/ascorbat (60 min, 37° C.) into the system, in the absence and presence of various antioxidants (AO).

For data set [2] the following is noted: in tablets; cited from earlier work.

As to `O=C1O[C@H]([C@@H](O)CO)C(O)=C1O` [ascorbic acid], in data set [1] (POL inhibition, ascorbic acid alone), the minimum inhibiting concentration was 2.5 mg/mL. Also, the “decrease of the concentration of the acid when wheat germ oil is simultaneously present” value in data set [1] (wheat germ oil and ascorbic acid simultaneously present) came to 5 times.
Regarding `O=C1c2c(O)cc(O)cc2O[C@H](c2ccc(O)c(O)c2)[C@H]1O` [dihydroquercetin], the minimum effective concentration in data set [1] (POL inhibition) was determined as 0.03 mg/mL. Also, the “antioxidant activity when wheat germ oil was added” value in data set [1] (wheat germ oil added to dihydroquercetin) is listed as “decreased”.
vitamin E: in data set [2], the bioavailability is 3%.
